Data on 10 compounds can be found in patent US12492188B2, “1H-benzo[D]imidazole derivatives as TLR9 inhibitors for the treatment of fibrosis” (BRISTOL-MYERS SQUIBB COMPANY, priority 2020, dated 2025).

Assay type in all cases: cell-based
One assay has as its target T1, human TLR9 (Homo sapiens, UniProt Q9NR96).
T1 construct: host or cells: HEK-Blue cells (HEK293-derived reporter line)
T1 sequence (Q9NR96 26-1032): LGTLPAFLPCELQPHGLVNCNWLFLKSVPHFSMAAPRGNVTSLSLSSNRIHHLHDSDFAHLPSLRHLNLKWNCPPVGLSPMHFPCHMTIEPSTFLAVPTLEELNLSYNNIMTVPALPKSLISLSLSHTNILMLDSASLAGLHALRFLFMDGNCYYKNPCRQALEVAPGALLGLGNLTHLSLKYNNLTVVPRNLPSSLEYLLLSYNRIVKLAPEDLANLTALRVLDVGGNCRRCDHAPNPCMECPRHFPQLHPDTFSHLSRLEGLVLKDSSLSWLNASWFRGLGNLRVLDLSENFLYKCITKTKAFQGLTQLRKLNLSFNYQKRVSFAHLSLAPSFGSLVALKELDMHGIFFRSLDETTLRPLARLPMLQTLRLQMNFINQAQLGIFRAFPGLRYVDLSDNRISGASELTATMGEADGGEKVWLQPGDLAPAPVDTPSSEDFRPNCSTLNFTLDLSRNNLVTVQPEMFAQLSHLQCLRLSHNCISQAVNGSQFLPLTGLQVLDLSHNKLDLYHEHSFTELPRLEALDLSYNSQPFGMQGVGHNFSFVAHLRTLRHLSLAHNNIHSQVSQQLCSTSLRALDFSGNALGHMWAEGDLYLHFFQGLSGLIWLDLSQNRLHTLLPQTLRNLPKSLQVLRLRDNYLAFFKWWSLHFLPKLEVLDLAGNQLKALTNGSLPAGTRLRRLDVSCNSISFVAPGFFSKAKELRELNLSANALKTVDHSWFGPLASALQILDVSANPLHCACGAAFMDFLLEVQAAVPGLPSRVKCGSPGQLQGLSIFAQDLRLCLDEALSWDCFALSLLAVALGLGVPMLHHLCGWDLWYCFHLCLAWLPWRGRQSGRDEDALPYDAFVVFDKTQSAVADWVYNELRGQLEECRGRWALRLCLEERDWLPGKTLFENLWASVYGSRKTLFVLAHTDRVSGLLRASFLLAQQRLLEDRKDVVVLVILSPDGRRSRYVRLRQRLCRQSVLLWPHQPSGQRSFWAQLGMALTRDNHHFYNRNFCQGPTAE
The experiment in a line: TLR9 inhibition reporter assay (HEK-Blue cells, secreted embryonic alkaline phosphatase reporter). Summed up:
(§1)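 Read-out is SEAP colour from HEK-Blue Detection medium after 22 h at 37 °C, converted to percent inhibition between agonist-plus-DMSO and reference-inhibitor wells. Receptor-overexpressing HEK-Blue cells received compound over 0.05 nM–50 μM for 30 min before agonist: gardiquimod 7.5 μM for TLR7, R848 15.9 μM for TLR8, ODN2006 5 nM for TLR9.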
On the technique in general: A reporter such as luciferase makes a cellular process visible.

The target of a further assay is T2, human TLR7 (Homo sapiens, UniProt Q9NYK1).
T2 construct: host or cells: HEK-Blue cells (HEK293-derived reporter line)
T2 sequence (Q9NYK1 27-1049): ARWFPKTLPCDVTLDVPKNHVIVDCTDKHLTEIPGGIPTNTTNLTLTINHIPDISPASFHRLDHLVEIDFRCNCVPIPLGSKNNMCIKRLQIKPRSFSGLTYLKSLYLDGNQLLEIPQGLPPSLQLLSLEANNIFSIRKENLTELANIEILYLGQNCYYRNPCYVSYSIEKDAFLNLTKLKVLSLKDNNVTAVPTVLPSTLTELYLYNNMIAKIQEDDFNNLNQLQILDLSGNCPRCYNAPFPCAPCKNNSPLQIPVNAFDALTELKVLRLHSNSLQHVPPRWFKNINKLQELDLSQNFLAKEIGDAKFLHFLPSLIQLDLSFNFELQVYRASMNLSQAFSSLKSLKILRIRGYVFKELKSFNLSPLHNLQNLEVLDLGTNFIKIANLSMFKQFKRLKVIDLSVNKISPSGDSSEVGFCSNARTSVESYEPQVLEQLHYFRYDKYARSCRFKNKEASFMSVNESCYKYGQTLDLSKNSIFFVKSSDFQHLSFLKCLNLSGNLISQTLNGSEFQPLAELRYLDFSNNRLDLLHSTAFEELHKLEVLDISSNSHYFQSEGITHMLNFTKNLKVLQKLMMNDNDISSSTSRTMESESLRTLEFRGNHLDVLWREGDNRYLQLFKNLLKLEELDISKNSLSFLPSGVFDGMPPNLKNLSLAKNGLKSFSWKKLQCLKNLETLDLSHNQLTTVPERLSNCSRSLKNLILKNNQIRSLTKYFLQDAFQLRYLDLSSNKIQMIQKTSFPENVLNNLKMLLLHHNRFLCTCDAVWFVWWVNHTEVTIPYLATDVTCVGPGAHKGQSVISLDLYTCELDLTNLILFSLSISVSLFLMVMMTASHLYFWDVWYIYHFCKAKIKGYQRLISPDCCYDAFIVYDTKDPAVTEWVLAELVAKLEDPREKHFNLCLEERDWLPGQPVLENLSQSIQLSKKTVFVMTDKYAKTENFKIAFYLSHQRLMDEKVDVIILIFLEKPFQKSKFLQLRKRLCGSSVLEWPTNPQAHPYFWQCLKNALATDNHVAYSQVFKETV
Nature of the assay: TLR7 inhibition reporter assay (HEK-Blue cells, secreted embryonic alkaline phosphatase reporter). The settings on record: HEK-Blue cells overexpressing human TLR7, stimulated with gardiquimod 7.5 μM; read-out: TLR 7 IC50. In short, it runs like this:
as §1

The target in another assay is T3, human TLR8 (Homo sapiens, UniProt Q9NR97).
T3 construct: host or cells: HEK-Blue cells (HEK293-derived reporter line)
T3 sequence (Q9NR97 27-1041): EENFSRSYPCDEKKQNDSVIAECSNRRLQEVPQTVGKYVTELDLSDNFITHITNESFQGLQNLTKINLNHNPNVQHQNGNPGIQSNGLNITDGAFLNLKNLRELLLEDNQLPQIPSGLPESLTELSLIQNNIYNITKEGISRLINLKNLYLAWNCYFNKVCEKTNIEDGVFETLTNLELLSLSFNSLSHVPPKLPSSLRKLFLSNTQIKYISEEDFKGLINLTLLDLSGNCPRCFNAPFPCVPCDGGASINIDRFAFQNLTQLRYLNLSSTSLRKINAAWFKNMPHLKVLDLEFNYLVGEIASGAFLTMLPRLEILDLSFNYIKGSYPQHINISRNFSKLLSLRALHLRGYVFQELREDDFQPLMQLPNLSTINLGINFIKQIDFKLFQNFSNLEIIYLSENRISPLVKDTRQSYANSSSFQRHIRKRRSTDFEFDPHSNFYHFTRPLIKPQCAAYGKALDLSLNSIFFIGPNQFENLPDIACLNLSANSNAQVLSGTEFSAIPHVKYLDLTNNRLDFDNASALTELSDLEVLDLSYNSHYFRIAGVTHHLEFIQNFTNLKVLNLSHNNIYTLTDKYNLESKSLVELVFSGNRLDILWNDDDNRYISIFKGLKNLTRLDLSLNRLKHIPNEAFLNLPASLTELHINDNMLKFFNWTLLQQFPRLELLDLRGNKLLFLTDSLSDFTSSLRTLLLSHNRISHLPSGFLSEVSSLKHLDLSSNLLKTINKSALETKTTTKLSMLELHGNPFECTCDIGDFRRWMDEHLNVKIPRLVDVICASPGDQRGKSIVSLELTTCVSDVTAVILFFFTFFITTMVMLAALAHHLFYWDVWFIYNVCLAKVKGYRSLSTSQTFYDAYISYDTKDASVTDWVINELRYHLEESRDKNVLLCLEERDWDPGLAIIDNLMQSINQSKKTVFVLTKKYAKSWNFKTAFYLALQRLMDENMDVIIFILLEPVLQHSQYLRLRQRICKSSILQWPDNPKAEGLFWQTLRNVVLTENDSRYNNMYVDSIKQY
The experiment in a line: TLR8 inhibition reporter assay (HEK-Blue cells, secreted embryonic alkaline phosphatase reporter). The settings on record: HEK-Blue cells overexpressing human TLR8, stimulated with R848 15.9 μM; read-out: TLR 8 IC50. Summed up: as §1

The mark [1] stands for this setting: HEK-Blue cells overexpressing human TLR9, stimulated with ODN2006 5 nM, read-out: TLR 9 IC50.
Setting [2] is: HEK-Blue cells overexpressing human TLR9, stimulated with ODN2006 5 nM, 22 hour incubation, reporter readout.

Structures are written as SMILES. Like-named read-outs stand apart in the source and are kept apart here. Bounds are passed on as bounds.

With `Cn1c(-c2ccc(S(C)(=O)=O)cc2)nc2cc(F)c(C3CCN(C4CC5CCC(C4)N5C4COC4)CC3)cc21` (single isomer, unassigned) [Example 235, 5-fluoro-1-methyl-2-(4-(methylsulfonyl)phenyl)-6-(1-(8-(oxetan-3-yl)-8-azabicyclo[3.2.1]octan-3-yl)piperidin-4-yl)-1H-benzo[d]imidazole], the IC50 (usually the concentration needed to halve the response being measured) against human TLR9 is 1700 nM; on human TLR9 (setting [1]), 1730 nM; on human TLR7 it was over 50000 nM; at human TLR8, over 50000 nM.
On to `Cn1c(-c2ccc(S(C)(=O)=O)cc2)nc2cc(F)c(C3CCN(C4CCN(CC5CC5)CC4)CC3)cc21` [Example 224, 6-(1′-(cyclopropylmethyl)-[1,4′-bipiperidin]-4-yl)-5-fluoro-1-methyl-2-(4-(methylsulfonyl)phenyl)-1H-benzo[d]imidazole], for which the IC50 at human TLR9 was 190 nM; on human TLR9 (setting [1]), 192 nM; at human TLR7 it was 25700 nM; at human TLR8, over 50000 nM.
In the case of `CC(C)N1C2CCC1CC(N1CCC(c3cc(F)c4nc(-c5ccc(S(C)(=O)=O)cc5)n(C)c4c3)CC1)C2` (single isomer, unassigned) [Example 107, 4-fluoro-6-(1-(8-isopropyl-8-azabicyclo[3.2.1]octan-3-yl)piperidin-4-yl)-1-methyl-2-(4-(methylsulfonyl)phenyl)-1H-benzo[d]imidazole], the IC50 against human TLR9 (setting [2]) was 270 nM; at human TLR9 (setting [1]) it was 269 nM; at human TLR7 it was 5800 nM; at human TLR8, over 50000 nM.
For `COc1ccc(-c2nc3cc(C4CCN(C5CCN(CC(C)C)CC5)CC4)ccc3n2CC(F)F)cc1OC` [Example 38, 1-(2,2-difluoroethyl)-2-(3,4-dimethoxyphenyl)-5-(1′-isobutyl-[1,4′-bipiperidin]-4-yl)-1H-benzo[d]imidazole] the same measures were 210 nM, 208 nM, 3400 nM and over 50000 nM.
Turning to `Cn1c(-c2ccc(S(C)(=O)=O)cc2)nc2cc(C3CCN(C4CC5CCC(C4)N5CC4CC4)CC3)cc(F)c21` (stereo not shown) [Example 218, 5-(1-(8-(cyclopropylmethyl)-8-azabicyclo[3.2.1]octan-3-yl)piperidin-4-yl)-7-fluoro-1-methyl-2-(4-(methylsulfonyl)phenyl)-1H-benzo[d]imidazole], the IC50 against human TLR9 was determined as 140 nM; on human TLR9 (setting [1]), 140 nM; on human TLR7, 5600 nM; at human TLR8, 48700 nM.
As for `Cc1cc(C2CCN(C3CCN(CC(C)C)CC3)CC2)cc2[nH]c(-c3ccc(S(C)(=O)=O)cc3)nc12` [Example 58, 6-(1′-isobutyl-[1,4′-bipiperidin]-4-yl)-4-methyl-2-(4-(methylsulfonyl)phenyl)-1H-benzo[d]imidazole tris(2,2,2-trifluoroacetate)], the half-maximal inhibitory concentration (IC50) on human TLR9 (setting [2]) was 47 nM; at human TLR9 (setting [1]) it was 47 nM; at human TLR7, 3100 nM; on human TLR8 it was over 50000 nM.
Turning to `COc1ccc(-c2nc3c(C)cc(C4CCN(C5CCN(C(C)C)CC5)CC4)cc3n2C)cc1OC` [Example 45, 2-(3,4-dimethoxyphenyl)-6-(1′-isopropyl-[1,4′-bipiperidin]-4-yl)-1,4-dimethyl-1H-benzo[d]imidazole], the IC50 against human TLR9 (setting [2]) is 20 nM; at human TLR9 (setting [1]), 20 nM; at human TLR7 it was 11000 nM; at human TLR8, over 50000 nM.
Take `Cc1cc(C2CCN(C3CCN(CC(C)C)CC3)CC2)cc2[nH]c(-c3ccnc4ccccc34)nc12` [Example 59, 4-(6-(1′-isobutyl-[1,4′-bipiperidin]-4-yl)-4-methyl-1H-benzo[d]imidazol-2-yl)quinoline]: the IC50 was 100 nM on human TLR9 (setting [2]), 100 nM on human TLR9 (setting [1]), 3800 nM at human TLR7 and over 50000 nM on human TLR8.
With `Cn1c(-c2ccc(S(C)(=O)=O)cc2)nc2c(F)c(C3CCN(C4CC5CCC(C4)N5CC4COC4)CC3)ccc21` (single isomer, unassigned) [Example 193, 4-fluoro-1-methyl-2-(4-(methylsulfonyl)phenyl)-5-(1-(8-(oxetan-3-ylmethyl)-8-azabicyclo[3.2.1]octan-3-yl)piperidin-4-yl)-1H-benzo[d]imidazole], the half-inhibitory concentration (IC50) at human TLR9 is 82 nM; at human TLR9 (setting [1]), 82 nM; at human TLR7 it was over 50000 nM; at human TLR8, over 50000 nM.
With `CC(C)N1CCC(N2CCC(c3cc(F)c4c(c3)nc(-c3ccc(S(C)(=O)=O)cc3)n4C)CC2)CC1` [Example 91, 7-fluoro-5-(1′-isopropyl-[1,4′-bipiperidin]-4-yl)-1-methyl-2-(4-(methylsulfonyl)phenyl)-1H-benzo[d]imidazole], the IC50 was 100 nM on human TLR9 (setting [2]), 104 nM on human TLR9 (setting [1]), 19400 nM on human TLR7 and over 50000 nM at human TLR8.
